The source of these data is the OligoGym collection.

Bases are written 5' to 3'; sugars and linkages follow in the same order, as letters with counts (s phosphorothioate, o phosphodiester; PS: all linkages phosphorothioate). The collection does not say whether C is 5-methylated. l = locked nucleic acid (LNA); d = 2'-deoxy (DNA) Some results are limits rather than exact numbers.

In this series the target is Tau. The experiment in a line: rat primary cortical neurons, FLIPR, 25 uM ASO.
As for “GGTGATATTGTCCAGGGACC (sugars l3 d14 l3, PS)”, the calcium oscillation score was 0 % of control.

As to “CTCATTTACCAATTATCTTT (sugars l4 d14 l2, PS)”, the calcium oscillation score is 64 % of control.

As to CATTTTACTAAAACGC (sugars l4 d8 l4, PS), the calcium oscillation score is 91.6 % of control.

As to “AACTGATTCCATCACCA (sugars l3 d11 l3, PS)”, the calcium oscillation score was 69.7 % of control.

In the case of CCCTAAAGTCCCAGGT (sugars l3 d10 l3, PS), the calcium oscillation score is 76.2 % of control.

As to “TGCCCATTCAAAATCTT (sugars l3 d11 l3, PS)”, the calcium oscillation score is 74.3 % of control.

Turning to “CACCTTCAGCCCAACTT (sugars l4 d11 l2, PS)”, the calcium oscillation score is 41.6 % of control.

Turning to “TTATTTCCAAATTCACTTTT (sugars lllldddddddddldlddll, PS)”, the calcium oscillation score is 102 % of control.

As for GGATGTTGCCTAATGA (sugars l3 d10 l3, PS), the calcium oscillation score is 0 % of control.

For the sequence “CAGACCATCAATTTCCC (sugars l2 d13 l2, PS)”, the calcium oscillation score is 75.7 % of control.

Regarding “AGAGACCACATTATCATCCA (sugars l3 d14 l3, PS)”, the calcium oscillation score was 26.2 % of control.

As for “TTTTCAAACACACCTTCAT (sugars l3 d12 l4, PS)”, the calcium oscillation score is 80.8 % of control.

Consider “CTTCTCCAGTATTTCTTC (sugars l2 d13 l3, PS)”, for which the calcium oscillation score is 69.4 % of control.

As for “CTCTTCCACTACAAGCTC (sugars l3 d13 l2, PS)”, the calcium oscillation score was 28.9 % of control.

On to “ATTTTACTACTCTCTTTT (sugars l4 d10 l4, PS)”, for which the calcium oscillation score is 75 % of control.

Take “TCTTACAGCCAAATGCAGTC (sugars l3 d14 l3, PS)”: the calcium oscillation score is 23.9 % of control.

Take “ACAGGAGAGCCATTTCCCAA (sugars l3 d14 l3, PS)”: the calcium oscillation score is 42.9 % of control.

Take “CAACTTTCATCTACTTTTCA (sugars l3 d14 l3, PS)”: the calcium oscillation score was 94.4 % of control.

“GCTCAGCTAAGACCCTCAGG (sugars l3 d14 l3, PS)”: the calcium oscillation score is 29.4 % of control.

Take CGCAGGCGCGAGCAGC (sugars l3 d10 l3, PS): the calcium oscillation score is 20.7 % of control.

Turning to “TATTTCCAAATTCACTTTTA (sugars lldldldddddddddldlll, PS)”, the calcium oscillation score was 129 % of control.

As for “CCAACTCTTTGAACACC (sugars l3 d12 l2, PS)”, the calcium oscillation score was 75.5 % of control.

“TCCCATCACTAGCACTA (sugars l2 d13 l2, PS)”: the calcium oscillation score was 32.8 % of control.

For “ACAGCCTCATAAACCTA (sugars l3 d11 l3, PS)”, the calcium oscillation score was 59.4 % of control.

For CTAAAGTCCCAGGTCT (sugars l3 d10 l3, PS), the calcium oscillation score is 59.2 % of control.

As for TCAGCTAGCGTGGCGA (sugars l3 d10 l3, PS), the calcium oscillation score is 75.9 % of control.

“TTACACCATCCAAGTCA (sugars l4 d11 l2, PS)”: the calcium oscillation score was 75.5 % of control.

“AAGAGTCACTGCACTGCATT (sugars l3 d14 l3, PS)”: the calcium oscillation score was 30.9 % of control.

Consider AGTTTGTGCAAGGTC (sugars l3 d9 l3, PS), for which the calcium oscillation score was 0 % of control.

With “CGGTAGGAAAGACATTTCCC (sugars l3 d14 l3, PS)”, the calcium oscillation score was 10.1 % of control.

Take “ACTTTATTTCCAAATTCACTTTTAC (sugars l4 d16 l2 d1 l2, PS)”: the calcium oscillation score is 29.5 % of control.

As for TAACCAATTAACCGAA (sugars l3 d10 l3, PS), the calcium oscillation score is 179 % of control.

As to “TCAAACACACCTTCATTTAC (sugars l2 d14 l4, PS)”, the calcium oscillation score was 82.2 % of control.

For the sequence “ATTTCCAAATTCACTTTTAC (sugars lllldddddddddldlddll, PS)”, the calcium oscillation score is 137 % of control.

Take AACCAATTAACCGAAC (sugars l3 d10 l3, PS): the calcium oscillation score is 138 % of control.

With “CAATCCATTTATATTCTTTT (sugars l4 d12 l4, PS)”, the calcium oscillation score is 63.2 % of control.

As for “CTTACACACCACACACACTC (sugars l1 d17 l2, PS)”, the calcium oscillation score was 88.5 % of control.

With CATCAAATCCATGCAT (sugars l4 d8 l4, PS), the calcium oscillation score is 76.7 % of control.

For “TCCCCCAAAATATCTCAA (sugars l3 d13 l2, PS)”, the calcium oscillation score was 53.9 % of control.

As for “ATTGCAACTTTAACTCC (sugars l3 d10 l4, PS)”, the calcium oscillation score was 62.9 % of control.

With GTCCCGAGCCAAAGC (sugars l3 d9 l3, PS), the calcium oscillation score was 31.3 % of control.

Regarding “TTATTTACACTGTCCTT (sugars l3 d10 l4, PS)”, the calcium oscillation score is 54.1 % of control.

On to ATGATTGTGGGCTTA (sugars l3 d9 l3, PS), for which the calcium oscillation score is 7.83 % of control.

For the sequence “TACACCATCCAAGTCAATGC (sugars l3 d14 l3, PS)”, the calcium oscillation score is 6.04 % of control.

“CTTTATTTCCAAATTCACTT (sugars l2 d2 l1 d12 l3, PS)”: the calcium oscillation score was 108 % of control.

Take GTTTTTTAACTCCCAAC (sugars l4 d9 l4, PS): the calcium oscillation score is 74.1 % of control.

AGTCTTTATTAACACTC (sugars l4 d9 l4, PS): the calcium oscillation score was 60.8 % of control.

For GTTGCCTAATGAGCCA (sugars l3 d10 l3, PS), the calcium oscillation score is 46.1 % of control.

Take “CCATTTTCCATATAATTTT (sugars l3 d12 l4, PS)”: the calcium oscillation score is 79.3 % of control.

On to “CTCTTTCTTAATTCAGA (sugars l4 d10 l3, PS)”, for which the calcium oscillation score was 60.1 % of control.

On to “TATTTCCAAATTCACTTTTA (sugars llddlldddddddddlldll, PS)”, for which the calcium oscillation score was 123 % of control.

As for “TGGAGCCGATCTTGGACTTG (sugars l3 d14 l3, PS)”, the calcium oscillation score is 0 % of control.

For the sequence “TCACAAACCCTGCTTGGCCA (sugars l3 d14 l3, PS)”, the calcium oscillation score was 27.6 % of control.

For the sequence “TCCTTTGTAATTCCTTCT (sugars l3 d13 l2, PS)”, the calcium oscillation score was 56.4 % of control.

Turning to GGCGACTTGTACAC (sugars l3 d8 l3, PS), the calcium oscillation score is 117 % of control.

“ACTTTATTTCCAAATTCACTTTTAC (sugars ldllldddddddddddddddllddl, PS)”: the calcium oscillation score is 17.7 % of control.

Take “ACAAACCAGTTACCATC (sugars l3 d10 l4, PS)”: the calcium oscillation score is 87.7 % of control.

With CACAAGTCCTTACAAA (sugars l3 d10 l3, PS), the calcium oscillation score was 194 % of control.

Consider “CCATTCAGATCTATCCA (sugars l3 d12 l2, PS)”, for which the calcium oscillation score was 94.3 % of control.

Consider CTCACCCCAAACAAGA (sugars l3 d10 l3, PS), for which the calcium oscillation score is 65.6 % of control.

In the case of “CCTAATAAAAACAATACTA (sugars l4 d11 l4, PS)”, the calcium oscillation score was 62.3 % of control.

As for “CTTTATTTCCAAATTCACT (sugars l5 d9 l1 d1 l3, PS)”, the calcium oscillation score is 110 % of control.

“CGTCCCAGCGTGATCTTCCA (sugars l4 d11 l5, PS)”: the calcium oscillation score is 42.6 % of control.

Consider ATGCAGGAGTTGTAAG (sugars l3 d10 l3, PS), for which the calcium oscillation score is 40.8 % of control.

Consider “TTTATTTCCAAATTCACTTT (sugars l1 d17 l2, PS)”, for which the calcium oscillation score is 163 % of control.

For the sequence CACAACCCAAGATTCC (sugars l3 d10 l3, PS), the calcium oscillation score was 58.8 % of control.

Turning to “ATTTCTCTAATTGTCCA (sugars l4 d10 l3, PS)”, the calcium oscillation score was 46.8 % of control.

Turning to “TCTTCCACTACAAGCTCC (sugars l2 d14 l2, PS)”, the calcium oscillation score is 55.8 % of control.

Consider “AGGTCAACTGGTTTGTAGAC (sugars l3 d14 l3, PS)”, for which the calcium oscillation score is 0 % of control.

Turning to “CAGTCTTTATTAACACT (sugars l3 d10 l4, PS)”, the calcium oscillation score is 50.7 % of control.

For “CTTTATTTCCAAATTCACTT (sugars l4 d11 l5, PS)”, the calcium oscillation score was 136 % of control.

As for “TTTAGTTTTCCCACCCAA (sugars l2 d13 l3, PS)”, the calcium oscillation score was 69.4 % of control.

As to “GTGATTAACCAATTAACCGA (sugars l3 d14 l3, PS)”, the calcium oscillation score is 6.48 % of control.

On to “GCCTTACTTTCTACTCA (sugars l2 d13 l2, PS)”, for which the calcium oscillation score was 70.7 % of control.

On to TGGATCAGAGGGTCTG (sugars l3 d10 l3, PS), for which the calcium oscillation score was 7.41 % of control.

For the sequence TCCAATACTAGATCTA (sugars l4 d9 l3, PS), the calcium oscillation score is 71.9 % of control.

As for “CATCTCTCTAGACATCT (sugars l4 d11 l2, PS)”, the calcium oscillation score is 79.4 % of control.

For CGGAAGGTCAGCTTGT (sugars l3 d10 l3, PS), the calcium oscillation score was 32.5 % of control.

As to “CCACTGGCGACTTGTACACG (sugars l3 d14 l3, PS)”, the calcium oscillation score is 16.8 % of control.

Regarding “ATTTCCAAATTCACTTTTAC (sugars l5 d11 l4, PS)”, the calcium oscillation score is 78.8 % of control.

In the case of “ATTTCCAAATTCACTTTTAC (sugars l5 d10 l5, PS)”, the calcium oscillation score was ≥ 200 % of control.

Turning to “AAAATATCCTTACCATCCT (sugars l2 d13 l4, PS)”, the calcium oscillation score was 73.9 % of control.

“ATTTCCAAATTCACTTTTAC (sugars llldldddddddddlddlll, PS)”: the calcium oscillation score was 118 % of control.

In the case of “ACTCTTTGAACACCCCAT (sugars l4 d12 l2, PS)”, the calcium oscillation score is 38.3 % of control.

Consider CCTCTTCCACTACAAG (sugars l2 d12 l2, PS), for which the calcium oscillation score is 57.8 % of control.

Take “CGTCCCAGCGTGATCTTCCA (sugars ldlllddddddddddlldll, PS)”: the calcium oscillation score was 38.3 % of control.

For the sequence “GCCATATTTCAACTCTT (sugars l2 d11 l4, PS)”, the calcium oscillation score was 57.7 % of control.

As for CACTGTTACACATTTA (sugars l4 d8 l4, PS), the calcium oscillation score is 70.6 % of control.

As for “GCGACTTGTACACGATCTCC (sugars l3 d14 l3, PS)”, the calcium oscillation score was 7.77 % of control.

As to “ATTAATTATTAAATCTTCTC (sugars l4 d12 l4, PS)”, the calcium oscillation score was 72.6 % of control.

On to “TCCCAGCGTGATCTTCCATC (sugars ldlllddddddddddlldll, PS)”, for which the calcium oscillation score is 74.5 % of control.

As for “ATATTTAGTTTTCCCAC (sugars l2 d11 l4, PS)”, the calcium oscillation score was 42.4 % of control.

Consider “CTTTCCTAATTCCCAAATTC (sugars l3 d15 l2, PS)”, for which the calcium oscillation score was 60.9 % of control.
